This assay deals with hypoxia-induced VEGF production in HeLa cells. Description: cells. The class given is cell-based, human. Conditions: Homo sapiens, HeLa.

Molecules are shown by their SMILES.

Take `COc1ccc(OC(=O)N2CCc3c([nH]c4ccc(Cl)cc34)C2c2ccc(OC)nc2)cc1` (centres unmarked) [Compound 1478]: the concentration for a half-maximal effect (EC50) (commonly the midpoint of the concentration-response curve) was in the range of 0.04 to 0.2 µM.
With `COc1ccc(C2c3[nH]c4ccc(Cl)cc4c3CCN2C(=O)Oc2ccc(Cl)cc2)cn1` (centres unmarked) [Compound 1479] the figure was 0.008 to 0.04 µM; with `CCOC(=O)N1CCc2c([nH]c3ccc(Cl)cc23)C1c1ccc(OC)nc1` (centres unmarked) [Compound 1480], 0.008 to 0.04 µM; with `COc1ccc(C2c3[nH]c4ccc(Cl)cc4c3CCN2C(=O)OCC(C)C)cn1` (centres unmarked) [Compound 1481], 0.008 to 0.04 µM.
With `CCOC(=O)N1CCc2c([nH]c3ccc(SC)cc23)C1c1ccc(OC)cc1` (centres unmarked) [Compound 1482] the figure was 0.04 to 0.2 µM; with `COc1ccc(C2c3[nH]c4ccc(SC)cc4c3CCN2C(=O)Oc2ccc(Cl)cc2)cc1` (centres unmarked) [Compound 1483], 0.008 to 0.04 µM; with `COc1ccc(OC(=O)N2CCc3c([nH]c4ccc(SC)cc34)C2c2ccc(OC)cc2)cc1` (centres unmarked) [Compound 1484], 0.04 to 0.2 µM.
Under `COc1ccc(C2c3[nH]c4ccc(SC)cc4c3CCN2C(=S)Oc2ccc(F)cc2)cc1` (centres unmarked) [Compound 1486] stands 0.008 to 0.04 µM; under `COc1ccc(C2NCCc3c2[nH]c2ccc(SC)cc32)cc1` (centres unmarked) [Compound 1487], greater than 1 µM.
Compound `CCOC(=O)N1CCc2c([nH]c3ccc([S+](C)[O-])cc23)C1c1ccc(OC)cc1` (centres unmarked) [Compound 1488] yielded a concentration for a half-maximal effect (EC50) greater than 1 µM.
With `COc1ccc(C2c3[nH]c4ccc([S+](C)[O-])cc4c3CCN2C(=O)Oc2ccc(Cl)cc2)cc1` (centres unmarked) [Compound 1489] the figure was greater than 1 µM; with `COc1ccc(OC(=O)N2CCc3c([nH]c4ccc([S+](C)[O-])cc34)C2c2ccc(OC)cc2)cc1` (centres unmarked) [Compound 1490], greater than 1 µM; with `COc1ccc(C2c3[nH]c4ccc([S+](C)[O-])cc4c3CCN2C(=O)Oc2ccc(F)cc2)cc1` (centres unmarked) [Compound 1491], greater than 1 µM.
Regarding `CCC(C)OC(=O)N1CCc2c([nH]c3ccc([S+](C)[O-])cc23)C1c1ccc(OC)cc1` (centres unmarked) [Compound 1493], the half-maximal effective concentration (EC50) is greater than 1 µM.
With `COc1ccc(C2c3[nH]c4ccc([S+](C)[O-])cc4c3CCN2C(=O)OC(C)(C)C)cc1` (centres unmarked) [Compound 1494] the figure was greater than 1 µM; with `COc1ccc(C2NCCc3c2[nH]c2ccc([S+](C)[O-])cc32)cc1` (centres unmarked) [Compound 1495], greater than 1 µM.
Compound `CCOC(=O)N1CCc2c([nH]c3ccc(S(C)(=O)=O)cc23)C1c1ccc(OC)cc1` (centres unmarked) [Compound 1496] yielded an EC50 greater than 1 µM.
`COc1ccc(C2c3[nH]c4ccc(S(C)(=O)=O)cc4c3CCN2C(=O)Oc2ccc(Cl)cc2)cc1` (centres unmarked) [Compound 1497] registered an EC50 greater than 1 µM.
`COc1ccc(OC(=O)N2CCc3c([nH]c4ccc(S(C)(=O)=O)cc34)C2c2ccc(OC)cc2)cc1` (centres unmarked) [Compound 1498] returned a half-maximal effective concentration (EC50) greater than 1 µM.
Under `COc1ccc(C2c3[nH]c4ccc(S(C)(=O)=O)cc4c3CCN2C(=O)Oc2ccc(F)cc2)cc1` (centres unmarked) [Compound 1499] stands greater than 1 µM; under `COc1ccc(C2c3[nH]c4ccc(S(C)(=O)=O)cc4c3CCN2C(=S)Oc2ccc(F)cc2)cc1` (centres unmarked) [Compound 1500], greater than 1 µM.
Under `COc1ccc(C2c3[nH]c4ccc(S(C)(=O)=O)cc4c3CCN2C(=O)OC(C)(C)C)cc1` (centres unmarked) [Compound 1502] stands greater than 1 µM; under `COc1ccc(C2c3[nH]c4ccc(S(C)(=O)=O)cc4c3CCN2C(=S)Oc2ccc(C)cc2)cc1` (centres unmarked) [Compound 1503], greater than 1 µM; under `COc1ccc(C2NCCc3c2[nH]c2ccc(S(C)(=O)=O)cc32)cc1` (centres unmarked) [Compound 1504], greater than 1 µM.
With `COc1ccc(C2c3[nH]c4ccc(Cl)cc4c3CCN2C(=O)[C@H](Cc2ccccc2)NC(C)=O)cc1` (some centres unmarked) [Compound 1505], the EC50 was greater than 1 µM.
Regarding `CC(=O)N[C@@H](Cc1ccccc1)C(=O)N1CCc2c([nH]c3ccc(Cl)cc23)C1c1ccc(OCCN2CCOCC2)cc1` (some centres unmarked) [Compound 1506], the EC50 is greater than 1 µM.
The compound `O=C(/C=C/c1ccccc1)N1CCc2c([nH]c3ccc(Cl)cc23)C1c1ccc(OCCCn2cncn2)cc1` (centres unmarked) [Compound 1508] displayed an EC50 of 0.008 to 0.04 µM.
Under `C/C=C/C(=O)N1CCc2c([nH]c3ccc(Cl)cc23)C1c1ccc(OCCCN2CCOCC2)cc1` (centres unmarked) [Compound 1509] stands 0.04 to 0.2 µM; under `C/C=C/C(=O)N1CCc2c([nH]c3ccc(Cl)cc23)C1c1ccc(OCCCn2cncn2)cc1` (centres unmarked) [Compound 1510], 0.008 to 0.04 µM.
The compound `CCOC(=O)N1CCc2c([nH]c3ccc(C#N)cc23)C1c1ccc(OC)cc1` (centres unmarked) [Compound 1512] displayed a concentration for a half-maximal effect (EC50) of 0.2 to 1 µM.
`COc1ccc(C2c3[nH]c4ccc(C#N)cc4c3CCN2C(=O)Oc2ccc(Cl)cc2)cc1` (centres unmarked) [Compound 1513] gave an EC50 of 0.04 to 0.2 µM.
For the compound `COc1ccc(C2c3[nH]c4ccc(C#N)cc4c3CCN2C(=O)Oc2ccc(F)cc2)cc1` (centres unmarked) [Compound 1514], the EC50 was in the range of 0.04 to 0.2 µM.
Under `COc1ccc(C2c3[nH]c4ccc(C#N)cc4c3CCN2C(=S)Oc2ccc(F)cc2)cc1` (centres unmarked) [Compound 1515] stands 0.04 to 0.2 µM; under `COc1ccc(OC(=O)N2CCc3c([nH]c4ccc(C#N)cc34)C2c2ccc(OC)cc2)cc1` (centres unmarked) [Compound 1516], 0.2 to 1 µM.
With `COc1ccc(C2NCCc3c2[nH]c2ccc(C#N)cc32)cc1` (centres unmarked) [Compound 1519] the figure was greater than 1 µM; with `CCOC(=O)N1CCc2c([nH]c3cccc(Br)c23)C1c1ccc(OC)cc1` (centres unmarked) [Compound 1521], 0.2 to 1 µM; with `COc1ccc(C2c3[nH]c4cccc(Br)c4c3CCN2C(=O)OCCF)cc1` (centres unmarked) [Compound 1522], 0.2 to 1 µM.
Under `CC#CCOC(=O)N1CCc2c([nH]c3cccc(Br)c23)C1c1ccc(OC)cc1` (centres unmarked) [Compound 1523] stands 0.04 to 0.2 µM.
In turn, `COc1ccc(C2c3[nH]c4cccc(Br)c4c3CCN2C(=O)Oc2ccc(F)cc2)cc1` (centres unmarked) [Compound 1524] had a concentration giving a half-maximal response (EC50) of 0.04 to 0.2 µM.
With `COc1ccc(C2c3[nH]c4cccc(Br)c4c3CCN2C(=O)Oc2ccc(Cl)cc2)cc1` (centres unmarked) [Compound 1525] the figure was 0.04 to 0.2 µM; with `COc1ccc(C2c3[nH]c4cccc(Br)c4c3CCN2C(=O)Oc2ccc(Br)cc2)cc1` (centres unmarked) [Compound 1526], 0.04 to 0.2 µM; with `COc1ccc(OC(=O)N2CCc3c([nH]c4cccc(Br)c34)C2c2ccc(OC)cc2)cc1` (centres unmarked) [Compound 1527], 0.2 to 1 µM.
Take `COc1ccc(C2c3[nH]c4cccc(Br)c4c3CCN2C(=O)Oc2ccccc2Cl)cc1` (centres unmarked) [Compound 1528]: the EC50 was greater than 1 µM.
In the case of `COc1ccc(C2c3[nH]c4cccc(Cl)c4c3CCN2C(=O)OCCF)cc1` (centres unmarked) [Compound 1529], the EC50 fell in the range of 0.2 to 1 µM.
With `CC#CCOC(=O)N1CCc2c([nH]c3cccc(Cl)c23)C1c1ccc(OC)cc1` (centres unmarked) [Compound 1530] the figure was 0.04 to 0.2 µM; with `COc1ccc(C2c3[nH]c4cccc(Cl)c4c3CCN2C(=O)Oc2ccc(Cl)cc2)cc1` (centres unmarked) [Compound 1531], 0.04 to 0.2 µM; with `COc1ccc(C2c3[nH]c4cccc(Cl)c4c3CCN2C(=O)Oc2ccc(Br)cc2)cc1` (centres unmarked) [Compound 1532], 0.04 to 0.2 µM.
On to `COc1ccc(C2c3[nH]c4cccc(Cl)c4c3CCN2C(=O)Oc2ccc(F)cc2)cc1` (centres unmarked) [Compound 1533], for which the EC50 is 0.04 to 0.2 µM.
Under `COc1ccc(OC(=O)N2CCc3c([nH]c4cccc(Cl)c34)C2c2ccc(OC)cc2)cc1` (centres unmarked) [Compound 1534] stands 0.2 to 1 µM.
As for `O=C(Oc1ccc(Cl)cc1)N1CCc2c([nH]c3ccc(Cl)cc23)C1c1ccc(OCCCN2CCC(O)CC2)cc1` (centres unmarked) [Compound 1537], the half-maximal effective concentration (EC50) was less than 0.008 µM.
With `O=C(Oc1ccc(C2NCCc3c2[nH]c2ccc(Cl)cc32)cc1)c1ccccc1` (centres unmarked) [Compound 1540] the figure was 0.008 to 0.04 µM.
With `CC(C)=CC(=O)N1CCc2c([nH]c3ccc(Cl)cc23)C1c1ccc(OCCCn2cncn2)cc1` (centres unmarked) [Compound 1542] the figure was less than 0.008 µM; with `CCOC(=O)N1CCc2c([nH]c3ccc(Cl)cc23)C1c1ccc(OCC#N)cc1` (centres unmarked) [Compound 1543], less than 0.008 µM.
With `N#CCOc1ccc(C2c3[nH]c4ccc(Cl)cc4c3CCN2C(=O)OCCF)cc1` (centres unmarked) [Compound 1544] the figure was 0.008 to 0.04 µM; with `N#CCOc1ccc(C2c3[nH]c4ccc(Cl)cc4c3CCN2C(=O)Oc2ccc(F)cc2)cc1` (centres unmarked) [Compound 1548], 0.008 to 0.04 µM.
`N#CCOc1ccc(C2NCCc3c2[nH]c2ccc(Cl)cc32)cc1` (centres unmarked) [Compound 1550] had an EC50 of 0.2 to 1 µM.
With `CS(=O)(=O)CCCOc1ccc(C2c3[nH]c4ccc(Cl)cc4c3CCN2C(=O)Oc2ccc(Cl)cc2)cc1` (centres unmarked) [Compound 1551] the figure was less than 0.008 µM.
As to `CN1CCC(OCCCOc2ccc(C3c4[nH]c5ccc(Cl)cc5c4CCN3C(=O)Oc3ccc(Cl)cc3)cc2)CC1` (centres unmarked) [Compound 1554], the concentration giving a half-maximal response (EC50) is greater than 1 µM.
In turn, `O=C(Oc1ccc(Cl)cc1)N1CCc2c([nH]c3ccc(Cl)cc23)C1c1ccc(OCCCOCCN2CCOCC2)cc1` (centres unmarked) [Compound 1555] returned an EC50 of less than 0.008 µM.
Turning to `C[Si](C)(C)CCS(=O)(=O)N1CCC(Oc2ccc(C3NCCc4c3[nH]c3ccc(Cl)cc43)cc2)CC1` (centres unmarked) [Compound 1556], the EC50 lay within 0.04 to 0.2 µM.
Under `CCOC(=O)N1CCc2c([nH]c3ccc(Cl)cc23)[C@@H]1c1ccc(Oc2ncccn2)cc1` [Compound 1573] stands less than 0.008 µM; under `CCOC(=O)N1CCc2c([nH]c3ccc(Cl)cc23)[C@@H]1c1ccc(Oc2cnccn2)cc1` [Compound 1574], less than 0.008 µM.
Under `CCOC(=O)N1CCc2c([nH]c3ccc(Cl)cc23)[C@@H]1c1ccc(Oc2ccc3ccccc3n2)cc1` [Compound 1575] stands less than 0.008 µM; under `CC#CCOC(=O)N1CCc2c([nH]c3ccc(Cl)cc23)C1c1ccc(OC2CCOCC2)cc1` (centres unmarked) [Compound 1576], less than 0.008 µM; under `CC#CCOC(=O)N1CCc2c([nH]c3ccc(Cl)cc23)C1c1ccc(OC2CCN(S(=O)(=O)CC[Si](C)(C)C)CC2)cc1` (centres unmarked) [Compound 1579], less than 0.008 µM.
With `C[Si](C)(C)CCS(=O)(=O)N1CCC(Oc2ccc(C3c4[nH]c5ccc(Cl)cc5c4CCN3C(=O)Oc3ccc(F)cc3)cc2)CC1` (centres unmarked) [Compound 1580] the figure was less than 0.008 µM; with `C[Si](C)(C)CCS(=O)(=O)N1CCC(Oc2ccc(C3c4[nH]c5ccc(Cl)cc5c4CCN3C(=O)Oc3ccc(Cl)cc3)cc2)CC1` (centres unmarked) [Compound 1581], less than 0.008 µM; with `Clc1ccc2[nH]c3c(c2c1)CCN(c1ncccn1)C3c1ccc(OC2CCOCC2)cc1` (centres unmarked) [Compound 1582], less than 0.008 µM.
